According to patent US20090240058A1, “Activator for Peroxisome Proliferator-Activating Receptor Delta” (priority 2005, published 2009):

Assays:
hPPAR α (LBD) = target: T1, hPPAR α (LBD) (Homo sapiens, UniProt Q07869); assay: GAL4-hPPAR α (LBD) luciferase reporter transactivation in CV-1 cells; type: cell-based; design: key: IA: inactive; conditions: relative to 100% of compound of Example 2 of Patent Publication 4 at 10^−6 M
T1 construct: A receptor expression plasmid (pSG5-GAL4-hPPAR α or γ or δ (LBD)); GAL4 (fusion partner); expressed in transfected cells; host or cells: CV-1 cells (ATCC)
T1 sequence (Q07869 239-466 limits assumed): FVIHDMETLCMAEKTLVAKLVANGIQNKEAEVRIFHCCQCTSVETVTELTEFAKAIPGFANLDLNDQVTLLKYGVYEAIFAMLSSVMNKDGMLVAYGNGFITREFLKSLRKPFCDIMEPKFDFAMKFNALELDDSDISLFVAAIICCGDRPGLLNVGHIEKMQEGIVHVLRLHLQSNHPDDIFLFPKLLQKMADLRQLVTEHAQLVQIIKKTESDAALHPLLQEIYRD
Description: (§1) A receptor expression plasmid (pSG5-GAL4-hPPAR α or γ or δ (LBD)), a luciferase expression plasmid (pUC8-MH100x4-TK-Luc) and β-galactosidase expression plasmid (pCMX-β-GAL) (Kliewer, S. A., et. al., (1992) Nature, 358:771-774) are transfected into CV-1 cells (ATCC). After gene transfer utilizing a lipofection reagent DMRIE-C or Lipofectamin 2000 (Invitrogen), it is incubated for 42 hours in the presence of the test compound. Then, the luciferase activity and β-GAL activity are measured on the soluble cells. The luciferase activity is calibrated by the β-GAL activity. A relative ligand activity is calculated for each of the PPARα, γ and δ under the following conditions: a relative activity of PPAR α is calculated in consideration of a luciferase activity (assigned to 100%) of cells treated with the compound described in Example 2 of the aforementioned Patent Publication 4 (PPARα-selective agonist); a relative activity of PPAR γ is calculated in consideration of a luciferase activity (assigned to 100%) cells treated with Rosiglitazone; and a relative activity of PPAR δ is calculated in consideration of a luciferase activity (assigned to 100%) of cells treated with GW-501516. See the below-described Examples 22 and 23.
(§2) The PPARδ activating effects of test compounds (compounds of Examples) were measured by the following method:
as §1, with “(pUC8-MH100x-4-TK-Luc)” for “(pUC8-MH100x4-TK-Luc)”, “approx. 40” for “42”, “PPAR α,” for “PPARα,”, “GW-501516.” for “GW-501516. See the below-described Examples 22 and 23.”
(§3) The experimental results Table 28 were obtained by procedures similar to the procedures for pharmacological experimental described in Example 22.

hPPAR γ (LBD) = target: T2, hPPAR γ (LBD) (Homo sapiens, UniProt P37231); assay: GAL4-hPPAR γ (LBD) luciferase reporter transactivation in CV-1 cells; type: cell-based; design: key: IA: inactive; conditions: relative to 100% of Rosiglitazone at 10^−5 M
T2 construct: A receptor expression plasmid (pSG5-GAL4-hPPAR α or γ or δ (LBD)); GAL4 (fusion partner); expressed in transfected cells; host or cells: CV-1 cells (ATCC)
T2 sequence (P37231 238-503 limits assumed): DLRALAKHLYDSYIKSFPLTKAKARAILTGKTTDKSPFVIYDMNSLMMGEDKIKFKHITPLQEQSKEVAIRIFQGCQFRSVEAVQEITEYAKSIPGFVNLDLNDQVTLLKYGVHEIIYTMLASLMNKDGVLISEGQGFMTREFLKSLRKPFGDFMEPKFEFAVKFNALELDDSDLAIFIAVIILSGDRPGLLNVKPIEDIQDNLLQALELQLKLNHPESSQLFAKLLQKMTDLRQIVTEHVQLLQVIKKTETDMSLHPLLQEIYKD
Description: as §1, §2
as §1, with “(pUC8-MH100x-4-TK-Luc)” for “(pUC8-MH100x4-TK-Luc)”, “approx. 40” for “42”, “PPAR α,” for “PPARα,”, “GW-501516.” for “GW-501516. See the below-described Examples 22 and 23.”
as §3

hPPAR δ (LBD) = target: T3, hPPAR δ (LBD) (Homo sapiens, UniProt Q03181); assay: GAL4-hPPAR δ (LBD) luciferase reporter transactivation in CV-1 cells; type: cell-based; conditions: relative to 100% of GW-501516 at 10^−7 M
T3 construct: A receptor expression plasmid (pSG5-GAL4-hPPAR α or γ or δ (LBD)); GAL4 (fusion partner); expressed in transfected cells; host or cells: CV-1 cells (ATCC)
T3 sequence (Q03181 211-439 limits assumed): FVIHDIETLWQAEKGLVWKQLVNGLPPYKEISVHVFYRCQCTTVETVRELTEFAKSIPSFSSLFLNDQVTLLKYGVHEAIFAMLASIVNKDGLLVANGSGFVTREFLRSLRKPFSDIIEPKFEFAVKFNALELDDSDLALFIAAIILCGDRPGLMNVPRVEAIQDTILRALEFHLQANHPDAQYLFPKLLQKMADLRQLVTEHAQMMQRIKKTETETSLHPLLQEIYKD
Description: For determining PPARδ activating effect of the compounds according to the invention, PPARδ activating effects of test compounds (compounds of Examples) were measured by the following method:
as §1, §2
as §1, with “(pUC8-MH100x-4-TK-Luc)” for “(pUC8-MH100x4-TK-Luc)”, “approx. 40” for “42”, “PPAR α,” for “PPARα,”, “GW-501516.” for “GW-501516. See the below-described Examples 22 and 23.”
as §3

[1] = test compound 10^−7 M (Examples 5, 8 and 10)
[2] = test compound 10^−7 M (Examples 8 and 10)
[3] = Table 28, test compound 10^−6 M

SMILES | PPAR activity (%) α (hPPAR α (LBD); test compound 10^−6 M) | PPAR activity (%) γ (hPPAR γ (LBD); test compound 10^−6 M) | PPAR activity (%) δ (hPPAR δ (LBD); test compound 10^−6 M) | PPAR activity (%) δ (hPPAR δ (LBD); [1]) | melting point | PPAR activity (%) α (hPPAR α (LBD); [2]) | PPAR activity (%) α (hPPAR α (LBD); [3]) | PPAR activity (%) γ (hPPAR γ (LBD); [3]) | PPAR activity (%) δ (hPPAR δ (LBD); [3])
Cc1cc(C(=O)CCc2cn(-c3ccc(C(F)(F)F)cc3)nc2C(C)C)ccc1OC(C)(C)C(=O)O [Example 1, 2-[4-[3-[3-Isopropyl-1-(4-trifluoromethylphenyl)-1H-pyrazol-4-yl]propionyl]-2-methylphenoxy]-2-methylpropionic acid] | 62% | 7% | 87% |  |  |  |  |  | 
Cc1cc(C(=O)CCc2cn(-c3ccc(C(F)(F)F)cc3)nc2C(C)C)ccc1OCC(=O)O [Example 2, 4-[3-[3-Isopropyl-1-(4-trifluoromethylphenyl)-1H-pyrazol-4-yl]propionyl]-2-methylphenoxyacetic acid] | IA | IA | 76% |  |  |  |  |  | 
Cc1ccc(-n2cc(CCC(=O)c3ccc(OC(C)(C)C(=O)O)c(C)c3)c(C(C)C)n2)nc1 [Example 3, 2-[4-[3-[3-Isopropyl-1-(5-methylpyridin-2-yl)-1H-pyrazol-4-yl]propionyl]-2-methylphenoxy]-2-methylpropionic acid] | 131% | 30% | 72% |  |  |  |  |  | 
Cc1cc(C(=O)CCc2cc(-c3ccc(C(F)(F)F)cc3)nn2C(C)C)ccc1OC(C)(C)C(=O)O [Example 5, 2-[4-[3-[1-Isopropyl-3-(4-trifluoromethylphenyl)-1H-pyrazol-5-yl]propionyl]-2-methylphenoxy]-2-methylpropionic acid] | 109% | 15% |  | 93% |  |  |  |  | 
Cc1cc(C(=O)CCc2cc(-c3ccc(C(F)(F)F)cc3)nn2C(C)C)ccc1OCC(=O)O [Example 6, [4-[3-[1-Isopropyl-3-(4-trifluoromethylphenyl)-1H-pyrazol-5-yl]propionyl]-2-methylphenoxy]acetic acid] | IA | IA | 86% |  | 160 to 163 °C |  |  |  | 
C=C(CCc1cc(-c2ccc(C(F)(F)F)cc2)nn1C(C)C)c1ccc(OC(C)(C)C(=O)O)c(C)c1 [Example 7, 2-[4-[1-[2-[1-Isopropyl-3-(4-trifluoromethylphenyl)-1H-pyrazol-5-yl]ethyl]vinyl]-2-methylphenoxy]-2-methylpropionic acid] | 84% | 38% | 72% |  |  |  |  |  | 
Cc1cc(C(C)CCc2cc(-c3ccc(C(F)(F)F)cc3)nn2C(C)C)ccc1OC(C)(C)C(=O)O (stereo not drawn) [Example 8, 2-[4-[3-[1-Isopropyl-3-(4-trifluoromethylphenyl)-1H-pyrazol-5-yl]-1-methylpropyl]-2-methylphenoxy]-2-methylpropionic acid] |  | 61% |  | 45% |  | 89% |  |  | 
Cc1cc(C(=O)CCc2cc(-c3ccc(C(F)(F)F)cc3)nn2C(C)C)ccc1OC(C)C(=O)O (stereo not drawn) [Example 9, 2-[4-[3-[1-Isopropyl-3-(4-trifluoromethylphenyl)-1H-pyrazol-5-yl]propionyl]-2-methylphenoxy]propionic acid] | 73% | 29% | 59% |  |  |  |  |  | 
CCCCCCn1nc(-c2ccc(C(F)(F)F)cc2)cc1CCC(=O)c1ccc(OC(C)(C)C(=O)O)c(C)c1 [Example 10, 2-[4-[3-[1-Hexyl-3-(4-trifluoromethylphenyl)-1H-pyrazol-5-yl]propionyl]-2-methylphenoxy]-2-methylpropionic acid] |  | 54% |  | 53% |  | 77% |  |  | 
CCCCCCn1nc(-c2ccc(C(F)(F)F)cc2)cc1CCC(=O)c1ccc(OCC(=O)O)c(C)c1 [Example 11, [4-[3-[1-Hexyl-3-(4-trifluoromethylphenyl)-1H-pyrazol-5-yl]propionyl]-2-methylphenoxy]acetic acid] | IA | IA | 81% |  | 118 to 123 °C |  |  |  | 
Cc1cc(C(=O)CCc2sc(-c3ccc(C(F)(F)F)cc3)cc2C)ccc1OC(C)(C)C(=O)O [Example 12, 2-Methyl-2-[2-methyl-4-[3-[3-methyl-5-(4-trifluoromethylphenyl)thiophen-2-yl]propionyl]phenoxy]-propionic acid] | 51% | 29% | 94% |  |  |  |  |  | 
Cc1cc(C(=O)CCc2sc(-c3ccc(C(F)(F)F)cc3)cc2C)ccc1OCC(=O)O [Example 13, [2-Methyl-4-[3-[3-methyl-5-(4-trifluoromethylphenyl)thiophen-2-yl]propionyl]phenoxy]acetic acid] | IA | IA | 82% |  |  |  |  |  | 
CCCCCCn1nc(-c2ccc(C)cc2)cc1CCC(=O)c1ccc(OC(C)(C)C(=O)O)c(C)c1 [Example 14, 2-[4-[3-[1-Hexyl-3-(4-methylphenyl)-1H-pyrazol-5-yl]propionyl]-2-methylphenoxy]-2-methylpropionic acid] |  |  |  |  |  |  | 123% | 48% | 94%
Cc1cc(C(=O)CCc2sc(-c3ccc(C(F)(F)F)cc3)cc2C(C)C)ccc1OC(C)(C)C(=O)O [Example 15, 2-[4-[3-[3-Isopropyl-5-(4-trifluoromethylphenyl)thiophen-2-yl]propionyl]-2-methylphenoxy]-2-methylpropionic acid] |  |  |  |  |  |  | 99% | 11% | 85%
Cc1cc(C(=O)CCc2sc(-c3ccc(C(F)(F)F)cc3)cc2C(C)C)ccc1OCC(=O)O [Example 16, [4-[3-[3-Isopropyl-5-(4-trifluoromethylphenyl)thiophen-2-yl]propionyl]-2-methylphenoxy]acetic acid] |  |  |  |  | 139 to 143 °C |  | inactive | inactive | 92%
CCCCCCc1cc(-c2ccc(C)cc2)sc1CCC(=O)c1ccc(OC(C)(C)C(=O)O)c(C)c1 [Example 17, 2-[4-[3-[3-Hexyl-5-(4-methylphenyl)thiophen-2-yl]propionyl]-2-methylphenoxy]-2-methylpropionic acid] |  |  |  |  |  |  | 109% | 35% | 76%
